Data reported in US11306063B2, “Heterocyclic naphthoquinones derivatives for use in the treatment of cancers including Cushing disease” (Commissariat a l'Energie Atomique et aux Energies …, priority 2016, dated 2022).

Legend:
USP8 = details: increasing concentrations; HEK293T lysate; FIG. 13D
Protocol: FIG. 13 D: Flag-USP8 constructs were transfected in HEK293T cells for 48 hours using standard protocols. After cell lysis, the whole cell lysate was incubated with HA-Ub-Vs at 1.5 μM during 12 hours. Then the mixture was separated on SDS-page gel and immunoblotted with anti Flag antibodies (to reveal USP8). The upper band corresponds to USP8 linked to HA-Ub-Vs while the lower band corresponds to free USP8. Immunoblot with anti-tubuline antibodies served as internal loading control.

LNCaP cells spheroids = assay: Cell migration out of 3D spheroids; type: cell-based, human; details: 2 μM and 5 μM; 1 to 7 days; FIG. 3
Protocol: In vitro migration out of the spheroid was performed using a 96-well tissue culture plate (Cell Culture Microplate, 96 wells, Flat-BOTTOM, CellStar #655090). 100 μL (72 h hours old+24 h drug treatment spheroids) were placed in corresponding well of the new flat microplate, and daily observed in bright field with a Zeiss Axio Observer microscope. Each condition was made in six replicates. The migration area was measured with the tools of the AxioObserver software.
To this end, 3-days old spheroids are placed in a new flat-well microplate and daily observed in bright field.

[1] = test system: MDA-MB231 triple negative breast cancer cells; assay: Wounding assay, MDA-MB231; type: cell-based; details: from 1 μM concentration; mitomycine 2 μg/ml; 24 hours
Protocol: In addition the migratory capacity of two additional triple negative breast cancer cells lines: the metastatic MDA-MB231 and BT-549 showing high migratory capacity was analyzed in a classical wound assay.
BT-549, MDA-MB231 cell lines were issued from the American Type Culture Collection (ATCC). For wounding assays, cells were seeded in 24-well microplates (Culture Insert 21, ref 250210, Ibidi®). […] Cell spreading was then visualized during 24 hours by videomicroscopy (1 acquisition each 30 min). A representative picture of 3 is presented at 0 and 12 hours of drug treatment out. In Graphs, curves represents the empty surface (devoid of cells) between the two cell layers (delimited by using Image J software).

[2] = test system: CyclinD1 and FAS in PC-3 cells; assay: Protein expression by immunoblot, PC-3; type: cell-based, human; details: dose and time dependent; 6 h or 24 h; FIG. 6
Protocol: (§1) In FIG. 6B and FIG. 6D, LNCaP cells were treated with dihydrotestosterone (DHT) to induce hormonal dependent FAS expression. Actin or Tubulin (Tub) serve as loading controls. One representative experiment out of three is presented.
(§2) Cells were treated by either DMSO (0.5%) or increasing doses of the selected molecules from 1 μM to 10 μM over 6 to 24 hours as indicated. Cell lysates were analyzed by immunoblotting following standard procedure using primary antibodies from Cell Signaling: anti-total P53 (#9282), anti-phosphoP53 Kit (#9919), anti-cyclinD1 (#2926), anti-FAS (#3189), anti EGFR (#4267), anti-Phospho (tyr1068) EGFR (#2234), anti Met (#4560), anti-Akt (#9272), anti Phospho(Ser473)-Akt (#9271) or anti-Myc (Santa Cruz Technology #Sc-40). Tubulin was detected using anti α-tubulin primary antibody (in-house: the polyclonal Glu-tubulin antibody (L4) is available commercially from Abcys (Paris, France)). HRP-coupled anti-rabbit (#A6154) and anti-mouse (#A4416) secondary antibodies were purchased from Sigma. HRP activity was detected through HRP chemoluminescence detection reagent (Millipore, #WBLUF0100). Apoptotic cell death induction was observed through the observation of PARP cleavage using anti-PARP primary antibodies anti-PARP (46D11) (#9532). Positive control was Epotoside at 50 μM or 100 μM, a known drug inducing cancerous cell death by apoptosis.

[3] = test system: CyclinD1, FAS, p53, PARP, cMyc in LNCaP cells; assay: Protein expression by immunoblot, LNCaP; type: cell-based, human; details: for Myc expression level, LNCaP / PARP cleavage, LNCaP: 24 h; for Myc expression level, LNCaP / PARP cleavage, LNCaP / phosphorylated p53 (P-Ser392, P-Ser15), LNCaP: FIG. 8; for PARP cleavage, LNCaP: concentration dependent; for phosphorylated p53 (P-Ser392, P-Ser15), LNCaP: FIG. 7C
Protocol: as §1
Actin or Tubulin (Tub) serve as loading controls. One representative experiment out of three is presented.
Tubulin (Tub) serves as loading controls. One representative experiment out of three is presented.
as §2

[4] = test system: EGFR, P-EGFR, Met, P-Akt in HCC827 cells; assay: Protein expression by immunoblot, HCC827; type: cell-based, human; details: 6 hours; dose dependent; FIG. 10
Protocol: Tubulin (Tub) serve as loading controls. One representative experiment out of two is presented.
(§3) Cells were treated by either DMSO (0.5%) or increasing doses of the selected molecules from 1 μM to 10 μM over 6 to 24 hours as indicated. […] Tubulin was detected using anti α-tubulin primary antibody (in-house: the polyclonal Glu-tubulin antibody (L4) is available commercially from Abcys (Paris, France)). HRP-coupled anti-rabbit (#A6154) and anti-mouse (#A4416) secondary antibodies were purchased from Sigma. HRP activity was detected through HRP chemoluminescence detection reagent (Millipore, #WBLUF0100). […] Positive control was Epotoside at 50 μM or 100 μM, a known drug inducing cancerous cell death by apoptosis.

[5] = test system: EGFR and Met in HEK293T cells; assay: Protein expression by immunoblot, HEK293T (Flag-USP8-S680A); type: cell-based, human; details: FIG. 11
Protocol: One representative experiment out of two is presented.
as §3

USP2-FL = USP2-FL (Homo sapiens, UniProt O75604); assay: biochemical
USP2^CD = biological target: T1, USP2^CD (Homo sapiens, UniProt O75604); assay: tri-Ub^K63 chains hydrolysis by USP2^CD (western blot); type: biochemical; details: FIG. 1C, at the indicated concentrations
T1 construct: The purified catalytic domain of USP2 (USP2^CD, in-house purified); His; made in house; host or cells: E. coli BL21 Gold
Protocol: (§4) The degradation of purified lysine 63-linked tree-Ubiquitin chains (triUb^K63) over a 90 minutes period of time was visualized by western blot analysis. […] Enzymatic assay was performed in a HEPES buffer (50 mM pH7.4, 150 mM NaCl, 0.5 mM EDTA, 2% glycerol, 0.2 mg/ml BSA, 5 mMDTT).

USP8^CD = biological target: T2, USP8^CD (Homo sapiens, UniProt P40818); assay: tri-Ub^K63 chains hydrolysis by USP8^CD (western blot); type: biochemical; details: FIG. 1D, at the indicated concentrations
T2 construct: the purified catalytic domain of USP8 (USP8^CD, in-house purified); made in house; host or cells: E. coli BL21 Gold
Protocol: as §4

[6] = dose and time dependent, 6 h or 24 h, FIG. 6

T2 sequence (P40818 777-1109 limits assumed): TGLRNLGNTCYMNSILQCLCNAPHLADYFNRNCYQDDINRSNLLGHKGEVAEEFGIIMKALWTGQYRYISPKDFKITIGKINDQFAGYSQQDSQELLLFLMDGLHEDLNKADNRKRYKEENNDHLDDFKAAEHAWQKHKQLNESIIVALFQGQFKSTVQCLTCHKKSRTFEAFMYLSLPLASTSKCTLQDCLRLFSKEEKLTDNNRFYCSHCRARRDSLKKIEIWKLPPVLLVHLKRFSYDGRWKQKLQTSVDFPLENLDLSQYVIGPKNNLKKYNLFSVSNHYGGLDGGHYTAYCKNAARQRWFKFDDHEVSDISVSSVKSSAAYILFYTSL
T1 sequence (O75604 267-599 limits assumed): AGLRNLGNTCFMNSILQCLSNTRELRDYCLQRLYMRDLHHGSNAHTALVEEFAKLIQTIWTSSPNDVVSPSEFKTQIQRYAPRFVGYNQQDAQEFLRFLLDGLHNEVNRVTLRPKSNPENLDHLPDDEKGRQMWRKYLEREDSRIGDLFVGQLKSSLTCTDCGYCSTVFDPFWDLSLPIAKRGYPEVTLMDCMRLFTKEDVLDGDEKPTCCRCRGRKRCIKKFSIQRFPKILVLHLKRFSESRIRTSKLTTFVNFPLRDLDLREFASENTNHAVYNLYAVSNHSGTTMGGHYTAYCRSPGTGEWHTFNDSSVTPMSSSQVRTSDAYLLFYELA
USP2-FL, sequence (O75604 whole entry): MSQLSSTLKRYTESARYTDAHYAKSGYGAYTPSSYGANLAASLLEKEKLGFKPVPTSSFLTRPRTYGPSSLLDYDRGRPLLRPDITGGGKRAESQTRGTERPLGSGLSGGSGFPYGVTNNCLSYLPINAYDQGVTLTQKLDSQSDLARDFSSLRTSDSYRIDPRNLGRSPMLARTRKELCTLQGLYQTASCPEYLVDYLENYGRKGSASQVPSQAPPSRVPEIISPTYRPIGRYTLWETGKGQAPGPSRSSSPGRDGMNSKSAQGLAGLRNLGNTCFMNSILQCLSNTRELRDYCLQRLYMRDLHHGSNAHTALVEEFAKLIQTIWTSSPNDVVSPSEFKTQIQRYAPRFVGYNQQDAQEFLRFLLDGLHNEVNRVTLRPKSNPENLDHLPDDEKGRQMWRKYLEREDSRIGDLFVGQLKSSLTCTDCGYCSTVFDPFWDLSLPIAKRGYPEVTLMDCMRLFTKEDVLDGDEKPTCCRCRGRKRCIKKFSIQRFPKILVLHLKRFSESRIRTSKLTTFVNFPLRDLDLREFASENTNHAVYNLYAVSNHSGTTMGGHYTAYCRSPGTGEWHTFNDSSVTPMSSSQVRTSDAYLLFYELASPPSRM

| SMILES | HA-Ub-VS binding to USP8 in the whole cell lysate (USP8) | prevention of cell migration out of the spheroids (LNCaP cells spheroids) | cell migration in wounding assay, MDA-MB231 [1] | expression level of CyclinD1, PC-3 [2] | expression level of FAS, PC-3 [2] | Myc expression level, LNCaP [3] | PARP cleavage, LNCaP [3] | phosphorylated p53 (P-Ser392, P-Ser15), LNCaP [3] | expression level of CyclinD1, LNCaP [3, 6] | expression level of FAS, LNCaP [3, 6] | p53 expression, LNCaP ([3]; dose dependent, FIG. 7A) | Akt phosphorylation, HCC827 [4] | EGFR degradation, HCC827 [4] | EGFR phosphorylation, HCC827 [4] | Met degradation, HCC827 [4] | EGFR levels induced by USP8-S680A, HEK293T ([5]; 6 h) | Met degradation, HEK293T ([5]; 6 hours, dose-dependent) | IC50 (USP2-FL) [nM] | inhibition of tri-Ub^K63 chains hydrolysis by USP2^CD (USP2^CD) | inhibition of tri-Ub^K63 chains hydrolysis by USP8^CD (USP8^CD) |
| --- | --- | --- | --- | --- | --- | --- | --- | --- | --- | --- | --- | --- | --- | --- | --- | --- | --- | --- | --- | --- |
| CCCCS(=O)(=O)Cc1nc2c(nc1CS(=O)(=O)CCCC)C(=O)c1ccccc1C2=O [PCR6236] | decreased HA-Ub-VS binding to USP8 | strong capacity | prevents triple negative breast cancer cell migration | strongly decreased | strongly decreased | decrease | induced the cleavage of PARP | accumulated | strongly decreased | strongly decreased | restored high levels of p53 expression | prevents Akt phosphorylation | EGFR and Met degradation | induces EGFR phosphorylation | EGFR and Met degradation | markedly reduced EGFR levels | induced Met degradation | 200 |  |  |
| CCCCS(=O)(=O)Cc1nc2c(o1)C(=O)c1ccccc1C2=O [PCR9301] |  |  |  |  |  | cMyc degradation | induced PARP cleavage | phosphorylation of p53 on Ser15 |  |  |  |  |  |  |  |  |  |  | full inhibition | full inhibition |
